Data reported in article PMC7947852, “Identification and Characterization of Chalcone Isomerase Genes Involved in Flavonoid Production in Dracaena cambodiana” (Frontiers in Plant Science, 2021).

Biological target: T1, DcCHI1 (Dracaena cambodiana, UniProt A0A8A5KFS9)
T1 construct: gene CHI1
T1 sequence (A0A8A5KFS9 1-219): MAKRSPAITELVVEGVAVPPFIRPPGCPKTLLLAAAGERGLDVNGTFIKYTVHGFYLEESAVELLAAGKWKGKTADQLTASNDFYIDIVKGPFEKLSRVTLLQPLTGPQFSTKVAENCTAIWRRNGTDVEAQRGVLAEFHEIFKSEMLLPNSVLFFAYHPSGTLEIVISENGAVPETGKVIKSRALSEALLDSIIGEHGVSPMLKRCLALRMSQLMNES
Assay: HPLC of reaction product
Type: biochemical
Details: 100 mM Tris-HCl pH 7.6, 30 °C, 2 min; 5 µl of 5 mM substrate in 200 µl

| Compound | HPLC of reaction product |
| --- | --- |
| O=C(/C=C/c1ccc(O)cc1)c1c(O)cc(O)cc1O [naringenin chalcone] | recombinant DcCHI1 could catalyze the formation of naringenin with naringenin chalcone as the substrate |
| O=C1C[C@@H](c2ccc(O)cc2)Oc2cc(O)cc(O)c21 [naringenin] | recombinant DcCHI1 could catalyze the formation of naringenin with naringenin chalcone as the substrate |
